Test results as given in patent US20210330611A1, “THERAPY FOR NEUROLOGICAL DISEASES/DISORDERS” (priority 2020, published 2021).
Counter-ions that a name gives are not always drawn. Like-named read-outs stand apart in the source and are kept apart here.

How the values were obtained:
[1] = tested on: fibrin- and LPS-induced microglia activation; assay: cells; format: cell-based, rat
[2] = tested on: fibrin-induced microglia activation; assay: Image-based assay of fibrin-induced microglia activation (HTS and dose response); format: cell-based, rat; conditions: for inhibition at 10 µM: Rattus norvegicus, Microglia, read-out: Fibrin % inhibition
[3] = tested on: LPS-induced microglia activation; assay: Image-based assay of LPS-induced microglia activation (HTS and dose response); format: cell-based, rat; conditions: for inhibition at 10 µM: Rattus norvegicus, Microglia, read-out: LPS % inhibition
primary rat microglia [4] = assay: Cell toxicity (dead cells, size <150 μm2) in coated fibrin (cFib) assay;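 note: share of dead cells sized under 150 µm2 at 10 µM in fibrin-stimulated microglia HTS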
primary rat microglia [5] = assay: Cell toxicity (dead cells, size <150 μm2) in LPS assay
[6] = quadrant by fibrin and LPS inhibition in HTS of 1907 compounds
[7] = primary microglia HTS, fibrin stimulation, increased cell size (>800 μm^2) as marker of activation
[8] = 48 h, primary microglia HTS, LPS stimulation, increased cell size (>800 μm^2) as marker of activation
[9] = primary microglia HTS, fibrin stimulation, decreased size (<150 μm^2) as marker of toxicity
[10] = primary microglia HTS, LPS stimulation, decreased size (<150 μm^2) as marker of toxicity
[11] = primary HTS, 10 μM, fibrin-stimulated primary microglia
[12] = primary HTS, 10 μM, LPS-stimulated primary microglia
[13] = primary HTS, 10 μM, fibrin assay, dead cells size <150 μm2
[14] = primary HTS, 10 μM, LPS assay, dead cells size <150 μm2
[15] = primary microglia HTS, LPS stimulation, increased cell size (>800 μm^2) as marker of activation

Row | Molecule | Quadrant (FIG. 5b) [1, 6] | inhibition at 10 µM [2, 7] | inhibition at 10 µM [3, 8] | Fibrin % cell toxicity (primary rat microglia [4]; [9]) | LPS % cell toxicity (primary rat microglia [5]; [10]) | also measured
1 | NC(=O)NC(=O)Cc1ccccc1 [Phenacemide] | Q1 | -9% | 66% | 1% | 1% | 
2 | CC(C)/N=c1\cc2n(-c3ccc(Cl)cc3)c3ccccc3nc-2cc1Nc1ccc(Cl)cc1 [Clofazimine] |  |  |  |  |  | Quadrant (FIG. 5b) ([1]; primary HTS, 10 μM): Q4; inhibition at 10 µM [2, 11]: 23%; inhibition at 10 µM [3, 12]: 15%; Fibrin % cell toxicity (primary rat microglia [4]; [13]): 1%; LPS % cell toxicity (primary rat microglia [5]; [14]): 0%
3 | Cc1cccc(C)c1NC(=O)CN1CCCC1=O [Nefiracetam] | Q4 | -21% | 13% | 0% | 0% | 
4 | CO/N=C(\C(=O)N[C@@H]1C(=O)N2C(C(=O)O)=C(COC(C)=O)CS[C@H]12)c1csc(N)n1 [Cefotaxime] |  |  |  |  |  | Quadrant (FIG. 5b) ([1]; primary HTS, 10 μM): Q4; Fibrin % inhibition [2, 11]: −20%; LPS % inhibition [3, 12]: −8%; Fibrin % cell toxicity (primary rat microglia [4]; [13]): 1%; LPS % cell toxicity (primary rat microglia [5]; [14]): 0%
5 | CC1(O)CCC(C(C)(C)O)CC1.O (stereo not shown) [Terpene Hydrate] |  |  |  |  |  | Quadrant (FIG. 5b) ([1]; HTS of 1907 compounds, quadrant by fibrin and LPS inhibition): Q4; Fibrin % inhibition ([2]; primary microglia HTS, 10 μM, fibrin-stimulated, cell size >800 μm^2 as marker of activation): −6%; LPS % inhibition ([3]; primary microglia HTS, 10 μM, LPS-stimulated, cell size >800 μm^2 as marker of activation): 8%; Fibrin % cell toxicity (primary rat microglia [4]; primary microglia HTS, 10 μM, fibrin assay, cell size <150 μm^2 as marker of toxicity): 1%; LPS % cell toxicity (primary rat microglia [5]; primary microglia HTS, 10 μM, LPS assay, cell size <150 μm^2 as marker of toxicity): 0%
6 | CCCCCCCCCCCCCCCCOP(=O)([O-])OCC[N+](C)(C)C [Miltefosine] | Q4 | -31% | 11% | 1% | 0% | 
7 | COCCc1ccc(OCC(O)CNC(C)C)cc1 (stereo not shown) [Metoprolol] | Q4 | 4% | 22% | 1% | 0% | 
8 | CC(=O)OCC1=C(C(=O)O)N2C(=O)[C@@H](NC(=O)Cc3cccs3)[C@H]2SC1 [Cefalotin] |  |  |  |  |  | Quadrant (FIG. 5b) ([1]; primary HTS, 10 μM): Q4; inhibition at 10 µM [2, 11]: 1%; inhibition at 10 µM [3, 12]: 1%; Fibrin % cell toxicity (primary rat microglia [4]; [13]): 1%; LPS % cell toxicity (primary rat microglia [5]; [14]): 0%
9 | CCN(CC)CCNC(=O)COc1ccc(OC)cc1 [Mefexamide, Mefexamide Hydrochloride] | Q4 |  |  | 0% | 0% | Fibrin % inhibition [2, 7]: −13%; LPS % inhibition [3, 15]: −2%
10 | COc1ccc2c(c1OC)C(=O)O[C@@H]2[C@H]1c2c(cc3c(c2OC)OCO3)CCN1C [Noscapine Hydrochloride] | Q4 | -15% | 23% | 1% | 0% | 
11 | CCCNC(=O)NS(=O)(=O)c1ccc(Cl)cc1 [Chlorpropamide] |  |  |  |  |  | Quadrant (FIG. 5b) ([1]; primary HTS, 10 μM): Q4; inhibition at 10 µM [2, 11]: 3%; inhibition at 10 µM [3, 12]: 17%; Fibrin % cell toxicity (primary rat microglia [4]; [13]): 1%; LPS % cell toxicity (primary rat microglia [5]; [14]): 1%
12 | Nc1ccc(O)c(C(=O)O)c1 [Mesalazine] | Q4 | 9% | 19% | 1% | 0% | 
13 | CC1=CC(=O)c2ccccc2C1=O [Menadione] | Q2 | 113% | 123% | 87% | 62% | 
14 | Polymyxin B Sulfate | Q1 |  |  | 1% | 2% | Fibrin % inhibition [2, 7]: −25%; LPS % inhibition [3, 15]: 76%
